Tested on: Treponema hyodysenteriae induced swine dysentery
Experiment: Treponema hyodysenteriae induced swine dysentery, lysocellin in feed, 51-day trial, challenge on study day 22
Type: in vivo
Details: for Daily feed / Daily gain / Feed/Gain: infected pigs
From the text: One hundred twenty (120) cross-bred barrows and gilts were used in a randomized complete blocks design to evaluate the effect of lysocellin on Treponema hyodysenteriae induced swine dysentery. The swine were divided into 4 groups: (1) non-infected, non-medicated controls, (2) infected non-medicated controls, (3) infected, medicated at 98.43 grams lysocellin/t (100 g/T), and (4) infected, medicated at 196.85 grams lysocellin/t (200 g/T). All were observed through a 51-day trial period. Swine in groups (2)-(4) were challenged with Treponema hyodysenteriae on study day 22 and the post-challenge period data were analyzed for significant differences. A description of the experimental design is summarized as follows:
Comparisons were made on treatment 1 vs. treatments 3 and 4, treatment 2 vs. treatment 3 and 4, and treatment 3 vs. treatment 4. The following observations were made based upon data analyzed: postchallenge performance of swine with respect to daily gain and daily feed gain, number of pigs per pen expressing clinical signs of dysentery during the postchallenge period, number of pig days per pen with clinical signs of dysentery during the postchallenge period, and number of pig days per pen with specified fecal score.
Referring to table 3 and table 4, clinical signs of dysentery observed during the postchallenge period are presented as treatment means of: number of pigs per pen expressing the sign and number of pig days the sign was observed within a pen. The value "pig days" was based on 28 days/pig surviving to the end of the trial or number of days a pig survived during the postchallenge period (for example, 5 pigs/pen on trial for 28 days equals 140 pig days). Removal of pigs from a pen during the trial was taken into account in these calculations.

[1] = 196.85 g/t (200 g/T) lysocellin, mean (lower, higher 95% confidence limits), 5 pigs/pen for 28 days = 140 pig days
[2] = postchallenge period 0-7 days, 98.43 g/t (100 g/T) lysocellin
[3] = postchallenge period 0-7 days, 196.85 g/t (200 g/T) lysocellin
[4] = postchallenge period 0-14 days, 98.43 g/t (100 g/T) lysocellin
[5] = postchallenge period 0-14 days, 196.85 g/t (200 g/T) lysocellin
[6] = postchallenge period 0-21 days, 98.43 g/t (100 g/T) lysocellin
[7] = postchallenge period 0-21 days, 196.85 g/t (200 g/T) lysocellin
[8] = postchallenge period 0-28 days, 98.43 g/t (100 g/T) lysocellin
[9] = postchallenge period 0-28 days, 196.85 g/t (200 g/T) lysocellin

In the case of lysocellin, the “Number of Pig Days per Pen with Clinical Signs of Dysentery During the Postchallenge Period: Depressed” value [1] is reported as 0.38 (-0.21,1.29), the “Number of Pig Days per Pen with Clinical Signs of Dysentery During the Postchallenge Period: Gauntness” value [1] is reported as 11.17 (5.73,18.30) and the “Number of Pig Days per Pen with Clinical Signs of Dysentery During the Postchallenge Period: Lethargic” value [1] is reported as 1.82 (0.07,4.74). For the same substance, the “Number of Pig Days per Pen with Clinical Signs of Dysentery During the Postchallenge Period: Reddened skin” value [1] was 1.29 (-0.02,3.41), the “Number of Pig Days per Pen with Clinical Signs of Dysentery During the Postchallenge Period: Rough hair coat” value [1] was 9.55 (2.33,21.19) and the “Number of Pig Days per Pen with Clinical Signs of Dysentery During the Postchallenge Period: Weak” value [1] was 0.13 (-0.35,0.94). For the same substance, the mortality (infected pigs fed lysocellin) was “prevented mortality”, the “anorexia (clinical sign)” value (infected pigs receiving either level of lysocellin, postchallenge period) was “No pigs receiving lysocellin appeared anorexic” and the feed efficiency (pigs receiving lysocellin (either level) vs infected control pigs) was “superior (P<.05)”. For the same substance, the “cumulative average daily gain” value (pigs receiving lysocellin (either level) vs infected nonmedicated pigs, each period (7, 14, 21 and 28 days)) was “improved (P<.05) over that of nonmedicated pigs”, the “fecal condition (number of pen pig days with a specified fecal condition)” value (pigs receiving lysocellin vs infected non-medicated control pigs, postchallenge period (Table 5, not given)) was “Infected non-medicated control pigs had significantly fewer (P<.05) days of normal feces and more (P<.05) days of water or bloody diarrhea than pigs receiving lysocellin” and the Daily feed [2] was 1.06 kg/day. For the same substance, the Daily gain [2] was 0.35 kg/day, the Feed/Gain [2] was 3.21 and the Daily feed [3] was 0.94 kg/day. The Daily gain [3] was 0.41 kg/day, the Feed/Gain [3] was 2.30 and the Daily feed [4] was 0.90 kg/day. For the same substance, the Daily gain [4] was 0.22 kg/day, the Feed/Gain [4] was 4.61 and the Daily feed [5] was 1.03 kg/day. It also gave a Daily gain [5] of 0.35 kg/day, a Feed/Gain [5] of 2.99 and a Daily feed [6] of 0.89 kg/day. It also gave a Daily gain [6] of 0.28 kg/day, a Feed/Gain [6] of 3.38 and a Daily feed [7] of 1.07 kg/day. For the same substance, the Daily gain [7] was 0.42 kg/day, the Feed/Gain [7] was 2.55 and the Daily feed [8] was 0.99 kg/day. The Daily gain [8] was 0.33 kg/day, the Feed/Gain [8] was 3.01 and the Daily feed [9] was 1.15 kg/day. The Daily gain [9] was 0.45 kg/day and the Feed/Gain [9] was 2.55.

Source: patent EP0250134B1, “Method for combating swine dysentery” (IMCERA Group Inc., priority 1986, dated 1987)
